Results on five compounds are retold here after patent US6498158B1, “Il-5 inhibiting 6-azauracil derivatives” (Janssen Pharmaceutica N.V., priority 1998, dated 2002).

The structures appear in SMILES notation.

For one data set, the system named is IL-5 production. In words: In vitro inhibition of IL-5 production in human blood. As to conditions: test dose of 1×10^−6 M, phytohemagglutinin-stimulated human whole blood, ELISA; for % inh. (percentage inhibition of IL-5 production): 48 hours; for inhibition at 1 µM: Homo sapiens, 48 h, read-out: % inh. (percentage inhibition of IL-5 production). It is filed as cell-based. Here is the method: In Vitro Inhibition of IL-5 Production in Human Blood
Human Whole Blood Stimulation
Peripheral blood from healthy male donors was drawn into heparinized syringes (12.5 U heparin/ml). Blood samples were three-fold diluted in RMPI 1640 medium (Life Technologies, Belgium) supplemented with 2 mM L-glutamine, 100 U/ml penicillin and […] streptomycin, and […] fractions were distributed in 24-well multidisc plates. Blood samples were preincubated (60 minutes at 37° C.) in a humidified 6% CO2-atmosphere with 100 ml of drug solvent (final concentration 0.02% dimethylsulfoxide in RPMI 1640) or with 100 ml of an appropriate dose of test compound before being stimulated by the addition of […] of phytohemagglutinin HA17 (Murex, UK) at a final concentration of […]. After 48 hours, cell-free supernatant fluids were collected by centrifugation and stored at −70° C. until tested for the presence of IL-5.
IL-5 measurements were conducted as described in Van Wauwe et al. (1996, Inflamm Res, 45, 357-363) on page 358 using ELISA.
Table 3 lists the percentage inhibition of IL-5 production (column “% inh”) at a test dose of 1×10^−6 M for the compounds of the present invention.
In general terms: In an ELISA, binding on a coated surface is turned into a signal by an enzyme label.

Usually melting point stands for the temperature of the solid-liquid transition. One may read the inhibition as the percentage by which the read-out fell short of the control.

On to `Cc1sc(C2(c3c(Cl)cc(-n4ncc(=O)[nH]c4=O)cc3Cl)CCc3ccccc32)nc1-c1ccccc1` (centres unmarked) [Compound 5], for which the melting point was 122 °C. Moreover, the “% inh. (percentage inhibition of IL-5 production)” value with IL-5 production was found to be 88%.

For the compound `N#CC1(c2c(Cl)cc(-n3ncc(=O)[nH]c3=O)cc2Cl)CCc2ccccc21` (centres unmarked) [Compound 1], the inhibition at 1 µM with IL-5 production was 70.5%.

`Cc1sc(C2(c3c(Cl)cc(-n4ncc(=O)[nH]c4=O)cc3Cl)CCc3ccccc32)nc1-c1ccccc1` (centres unmarked) [Compound 4] showed a melting point of 237 °C. Further, the inhibition at 1 µM in the data set with IL-5 production is 89.3%.

For the compound `Cc1sc(C2(c3c(Cl)cc(-n4ncc(=O)[nH]c4=O)cc3Cl)CCc3ccccc32)nc1-c1ccccc1` (centres unmarked) [Compound 6], in the data set on IL-5 production, the “% inh. (percentage inhibition of IL-5 production)” value is 91%.

In the case of `CCOC(=O)C1(c2c(Cl)cc(-n3ncc(=O)[nH]c3=O)cc2Cl)CCc2ccccc21` (centres unmarked) [Compound 2], the melting point is 88 °C. Besides, the inhibition at 1 µM with IL-5 production is 63%.
